Biological target: T1, SAMHD1 (Homo sapiens, UniProt Q9Y3Z3)
T1 construct: recombinant SAMHD1 with N-terminal GST tag
Experiment: TLC-based [γ-32P]-dTTP triphosphohydrolase kinetics; HPLC dGTP hydrolysis assay
Type: biochemical

T1 sequence (Q9Y3Z3 whole entry): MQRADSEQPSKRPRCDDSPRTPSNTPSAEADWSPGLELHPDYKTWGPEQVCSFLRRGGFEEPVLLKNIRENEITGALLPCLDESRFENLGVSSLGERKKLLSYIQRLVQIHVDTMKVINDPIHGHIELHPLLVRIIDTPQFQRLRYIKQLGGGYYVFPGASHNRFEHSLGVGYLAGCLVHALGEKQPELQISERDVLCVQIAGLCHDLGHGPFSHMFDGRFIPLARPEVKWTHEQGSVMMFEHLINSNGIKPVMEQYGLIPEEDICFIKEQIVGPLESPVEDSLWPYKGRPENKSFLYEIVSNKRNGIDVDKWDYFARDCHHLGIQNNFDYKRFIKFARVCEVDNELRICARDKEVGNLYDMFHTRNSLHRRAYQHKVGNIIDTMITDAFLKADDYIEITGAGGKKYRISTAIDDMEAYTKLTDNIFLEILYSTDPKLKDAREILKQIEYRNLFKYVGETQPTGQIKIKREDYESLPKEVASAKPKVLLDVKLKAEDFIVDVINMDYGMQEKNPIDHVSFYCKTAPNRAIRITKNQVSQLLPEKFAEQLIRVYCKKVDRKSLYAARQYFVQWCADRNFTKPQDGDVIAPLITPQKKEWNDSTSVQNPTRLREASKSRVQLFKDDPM

A Ki of 256 ± 70 µM was found for C[C@H]1[C@H](O)[C@@H](COP(=O)(O)OP(=O)(O)OP(=O)(O)O)O[C@H]1n1ccc(=O)[nH]c1=O [SMDU-TP] in this work.

— article PMC5207538, “Substrates and Inhibitors of SAMHD1” (PLoS ONE, 2017)
